Test results from US20230414610A1, “THERAPIES FOR CANCER USING SMALL MOLECULES THAT BIND TO AND INHIBIT RAIL INTERACTING PROTEINS” (Texas Tech University System, priority 2020, published 2023).

test system: breast cancer cells; assay: Breast cancer cell inhibition in vitro; type: cell-based; conditions: by inhibiting RLIP

| SMILES | killing of breast cancer cells |
| --- | --- |
| O=C(N/N=C1/c2ccccc2-c2nc3nonc3nc21)c1ccccc1O [TTUHSC-SS-A4] | kill breast cancer cells at low concentrations |
| [H]/N=C(\N)Nc1nc(-c2ccccc2)c2cc(F)ccc2n1 [TTUHSC-SS-B9] | kill breast cancer cells at low concentrations |
| O=c1cc(COc2cccc(-n3cnnn3)c2)c2ccccc2[nH]1 [TTUHSC-SS-C2] | kill breast cancer cells at low concentrations |
| c1ccc(-c2nnc(NCc3nc4ccccc4[nH]3)c3ccccc23)cc1 [TTUHSC-SS-C4] | kill breast cancer cells at low concentrations |
| N#Cc1nc(-c2ccccn2)c2c(c1-c1ccccc1)CCC2 [TTUHSC-SS-E4] | kill breast cancer cells at low concentrations |
